The structures appear in SMILES notation.

One experiment has as its system NF-κB (p65 sub-unit). Put plainly: p65 subunit immunostaining, nuclear accumulation of NF-κB in HeLa cells. The format is cell-based. The settings on record: TNFα stimulation, IA 140 μM. The method, then: (A) IA inhibits IKK phosphorylation. HeLa cells were stimulated with TNFα (20 ng/ml for 20 minutes) in the absence or presence of IA (140 μM) as shown. Whole cell extracts were prepared and analyzed for the phosphoryation of IKKα and IKKβ by Western blotting (WB). (B) HeLa cells were stimulated with TNFα (20 ng/ml for 20 minutes) in the absence or presence of IA (140 μM). Cells were fixed and then stained with rabbit anti-p65 followed by anti-rabbit Rhodamine Red-labeled secondary Ab. and with DAPI for nuclei location (not shown). (B1) HeLa cells, no treatment; (B2) HeLa cells +IA; (B3) HeLa cells +TNF; (B4) HeLa cells +IA+TNF. The cells were examined under an Axioscope Zeiss microscope with a plan-Neofluor * 60 lens. Results of one of three independent experiments are shown.
p65 Subunit Immunostaining. HeLa Cells were preincubated with IA and then stimulated with TNFα as described in the IκBα degradation assay above. Cells were then fixed with formaldehyde 1%, permeabilized with 0.25% Triton X-100, stained with rabbit anti-p65 (Santa Cruz, Calif., USA) and visualized with anti-rabbit Rhodamine Red-labeled secondary antibody (Jackson ImmunoResearch, Baltimore, USA). Cells were also stained with DAPI (blue) for nuclei location (data not shown). The cells were examined under an Axioscope Zeiss microscope with a plan-Neofluor * 60 lens.

In the next experiment the target is T1, TRPV3 (Mus musculus, UniProt Q8K424).
T1 sequence (Q8K424 1-791): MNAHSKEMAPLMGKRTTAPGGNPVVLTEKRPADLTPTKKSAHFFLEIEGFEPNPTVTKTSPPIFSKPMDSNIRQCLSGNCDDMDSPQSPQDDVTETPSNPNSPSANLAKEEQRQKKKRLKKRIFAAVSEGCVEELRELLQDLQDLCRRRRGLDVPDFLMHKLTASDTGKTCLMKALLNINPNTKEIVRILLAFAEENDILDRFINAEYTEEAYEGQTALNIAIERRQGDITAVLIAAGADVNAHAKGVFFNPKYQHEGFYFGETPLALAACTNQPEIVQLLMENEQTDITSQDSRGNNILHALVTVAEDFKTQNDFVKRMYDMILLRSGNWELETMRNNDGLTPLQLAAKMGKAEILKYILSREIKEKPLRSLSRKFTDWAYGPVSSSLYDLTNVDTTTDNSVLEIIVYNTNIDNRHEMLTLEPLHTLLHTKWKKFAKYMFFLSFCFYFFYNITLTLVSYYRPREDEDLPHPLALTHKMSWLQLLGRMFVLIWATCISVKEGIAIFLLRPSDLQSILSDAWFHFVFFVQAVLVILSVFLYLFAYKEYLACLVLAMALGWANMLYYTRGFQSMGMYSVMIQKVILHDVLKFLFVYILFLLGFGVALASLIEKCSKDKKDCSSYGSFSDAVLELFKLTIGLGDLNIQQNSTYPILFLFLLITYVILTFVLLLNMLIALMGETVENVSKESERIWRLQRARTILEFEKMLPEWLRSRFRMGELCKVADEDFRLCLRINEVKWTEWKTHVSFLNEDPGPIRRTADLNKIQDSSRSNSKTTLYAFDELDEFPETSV
Put plainly: Elevated plus maze in WT and TRPV3−/− mice. Type of experiment: in vivo, C57BL/6 mice. The arrangement: from tissue; host or cells: whole animal, wild type C57BL/6 female mice (TRPV3 KO as control). The settings on record: 75 mg/kg. How it is done: Wild type and TRPV3^−/− mice (18-20 weeks old) were injected with vehicle (isopropanol:emulphor:saline=1:1:18) or IA (75 mg/kg). 30 min later they were tested in a, the elevated plus maze (5 min), followed by b, 9 min exposure to the Porsolt forced-swimming test. […] Data are presented as means±SEM; n=4-5. * p<0.05, compared to WT-Vehicle-injected mice (Bonferroni post hoc test). ** p<0.01, compared to WT-Vehicle-injected mice (Bonferroni post hoc test).
Mice were placed in the central platform (10×10 cm) between the open (10×45 cm) and enclosed (10×45×40 cm) arms of a plus maze. The number of entries and the time spent in each of the arms was recorded. As described by others (Crawley, 2000; Treit and Menard, 1998), an ‘anti-anxiety’ effect was calculated both as the ratio of entries onto the open arms to total arm entries, and as the % time on the open arms proportional to the time in the closed arms. Mice (female Sabra strain, aged 3.5-4.5 months old) were injected intraperitoneally with 10, 30 or 50 mg/kg of incensole acetate or with vehicle. Each dose was administered to 5 mice. Fifty min after injection the mice were tested in the plus-maze for […] effects. Desipramine (5 mg/kg) was injected to a separate group of mice as a positive control. One-way Anova indicated significant effects (F=8.9, df=4.27, P<0.01). […] Data are presented as means±SEM. DMI=desipramine […]

On to `CC(=O)OC1CC/C(C)=C/CC/C(C)=C/CC2(C(C)C)CCC1(C)O2` (stereo not drawn) [IA, incensole acetate], for which the “nuclear accumulation of NF-κB (p65)” value with NF-κB (p65 sub-unit) is “inhibited the nuclear accumulation of NF-κB”. Also, on TRPV3 (TRPV3−/− mice, IA vs vehicle), the “time on the open arms, TRPV3−/− mice” value was “spent identical time on the open arms”. In addition, the “time on the open arms, WT mice” value on TRPV3 (WT mice, 30 min after injection) is reported as “potent anxiolytic-like effect”.
